Results reported in patent US11008334B2, “Compositions and methods for treating cancer” (The Regents of the University of California, priority 2012, dated 2021).
Where two headings read alike, the source gives them in different places.

Target: T1, K-RasG12C (1-169) (Homo sapiens, UniProt P01116, G12C)
T1 construct: Un-tagged recombinant K-Ras G12C (1-169) at 4 μM in Buffer A; hexahistidine (cleaved yes); made in house; host or cells: Escherichia coli BL21 (DE)
Test: Mass spectrometric screen for extent of covalent labeling
Format: binding
Details: for percent covalent labeling at 10 µM: 10 micromolar; for Labeling % (10 micM) 24h: 10 micM compound, (plate) or (single) measurement
Protocol: Un-tagged recombinant K-Ras G12C (1-169) at 4 μM in Buffer A was reacted with inhibitors at 200 μM or 10 μM (2% DMSO final). At 2, 6, and 24 hrs, 10 μL aliquots were removed and the reactions were stopped by addition of 1 μL 2% formic acid. The extent of modification was determined by mass spectrometry.

[1] = 2 h, 2 hrs, read-out: Percent reduction in activity of compound at 10 micromolar relative to control (no compound), 2 hrs
[2] = 6 h, 6 hrs, read-out: Percent reduction in activity of compound at 10 micromolar relative to control (no compound), 6 hrs
[3] = 24 h, 24 hrs, read-out: Percent reduction in activity of compound at 10 micromolar relative to control (no compound), 24 hrs

Structure (SMILES) | percent covalent labeling at 10 µM [1] [%] | percent covalent labeling at 10 µM [2] [%] | percent covalent labeling at 10 µM [3] [%] | Labeling % (10 micM) 24h | Labeling % (10 micM) 24h (Table 5)
C=CS(=O)(=O)N1CCC2(CCN(C(=O)COc3ccc(Cl)cc3Cl)C2)C1 (stereo not shown) [JO-02-74B] | ≤ 5 | ≤ 5 | 5 to 20 | – | –
C=CC(=O)NC1CCN(C(=O)Cn2ncc3ccccc32)CC1 [Ras-004] | ≤ 5 | ≤ 5 | ≤ 5 | – | –
C=CS(=O)(=O)NC1CCN(C(=O)CNc2cc(CC)c(Cl)cc2OC)CC1 [Ras-085] | 5 to 20 | 20 to 40 | > 60 | – | –
C=CS(=O)(=O)NC1CCN(C(=O)CSc2ccc(Cl)c3ccccc23)CC1 [JO-02-31C] | ≤ 5 | ≤ 5 | 20 to 40 | – | –
C=CS(=O)(=O)N1CCC(NC(=O)COc2ccc(Cl)cc2Cl)CC1 [JO-02-55] | ≤ 5 | ≤ 5 | 5 to 20 | – | –
C=CS(=O)(=O)NC1CCN(C(=O)CSc2cn(CC)c3ccccc23)CC1 [UP-I-154B] | ≤ 5 | ≤ 5 | ≤ 5 | – | –
C=CC(=O)N1CCN(C(=O)COc2ccc(Cl)cc2Cl)CC1 [JO-01-172] | ≤ 5 | ≤ 5 | ≤ 5 | – | –
C=CS(=O)(=O)NC1CCN(C(=O)Cn2cnc3ccccc32)CC1 [Ras-014] | ≤ 5 | ≤ 5 | ≤ 5 | – | –
C=CS(=O)(=O)N1CCC2(CN(C(=O)COc3ccc(Cl)cc3Cl)C2)C1 [JO-02-74C] | ≤ 5 | ≤ 5 | 5 to 20 | – | –
C=CS(=O)(=O)NC1CCN(C(=O)CCn2ncc3ccccc32)CC1 [Ras-010] | ≤ 5 | ≤ 5 | ≤ 5 | – | –
C=CC(=O)NC1CCN(C(=O)COc2ccc(Cl)cc2Cl)CC1 [JO-01-171] | ≤ 5 | ≤ 5 | ≤ 5 | – | –
C=CS(=O)(=O)NC1CCN(C(=O)COc2ncnc3sc(C)cc23)CC1 [UP-I-154K] | ≤ 5 | ≤ 5 | ≤ 5 | – | –
C=CS(=O)(=O)NC1CCN(C(=O)COc2c(Cl)cc(Cl)cc2NC(=O)OC(C)(C)C)CC1 [UP-I-162B] | ≤ 5 | ≤ 5 | ≤ 5 | – | –
C=CS(=O)(=O)NC1CCN(C(=O)C(C)Oc2ccc(Cl)cc2Cl)CC1 (stereo not shown) [JO-02-115B] | ≤ 5 | ≤ 5 | ≤ 5 | – | –
C=CS(=O)(=O)NCCCNC(=O)COc1ccc(Cl)cc1Cl [JO-02-36B] | ≤ 5 | ≤ 5 | ≤ 5 | – | –
C=CS(=O)(=O)NC1CCN(C(=O)COc2ccc(Cl)cc2CNC(C)=O)CC1 [Ras-031] | ≤ 5 | ≤ 5 | ≤ 5 | – | –
C=CS(=O)(=O)NC1CCN(C(=O)Cn2ncc3ccccc32)CC1 [Ras-009] | ≤ 5 | ≤ 5 | ≤ 5 | – | –
C=CS(=O)(=O)NC1CCN(C(=O)c2cc3cc(OC)ccc3[nH]2)CC1 [JO-02-49C] | ≤ 5 | ≤ 5 | ≤ 5 | – | –
C=CS(=O)(=O)N1CCC2(CC1)CN(C(=O)COc1ccc(Cl)cc1Cl)C2 [JO-02-112A] | ≤ 5 | ≤ 5 | 5 to 20 | – | –
C=CS(=O)(=O)NC1CCN(C(=O)COc2ccc(Cl)cc2C(=O)N(C)C)CC1 [Ras-025] | ≤ 5 | ≤ 5 | ≤ 5 | – | –
C=CS(=O)(=O)NC1CCN(C(=O)COc2ccc(Cl)cc2N2CCCC2)CC1 [Ras-029] | ≤ 5 | ≤ 5 | ≤ 5 | – | –
N#CC1(NC(=O)C2CCN(C(=O)COc3ccc(Cl)cc3Cl)CC2)CC1 [Ras-001] | ≤ 5 | ≤ 5 | ≤ 5 | – | –
C=CC(=O)NCCCNC(=O)COc1ccc(Cl)cc1Cl [JO-02-37B] | ≤ 5 | ≤ 5 | ≤ 5 | – | –
C=CS(=O)(=O)NC1CCN(C(=O)CNc2ccc(Cl)cc2Cl)CC1 [Ras-028] | ≤ 5 | ≤ 5 | 20 to 40 | +++ (plate) (20%< +++ <=40%) | +++ (plate) (20%< +++ <=40%)
C=CS(=O)(=O)NCC(=O)Nc1cc(-c2cccs2)n[nH]1 [JO-02-125] | ≤ 5 | ≤ 5 | 20 to 40 | – | –
C=CS(=O)(=O)NC1CCN(C(=O)COc2ccc(Cl)cc2OC)CC1 [Ras-041] | ≤ 5 | ≤ 5 | 5 to 20 | – | –
C=CS(=O)(=O)NC1CCN(C(=O)C(C)Oc2cc(Cl)c(Cl)cc2Cl)CC1 (stereo not shown) [JO-02-116A] | ≤ 5 | ≤ 5 | ≤ 5 | – | –
C=CS(=O)(=O)NC1CCN(C(=O)c2cc3cc(F)ccc3[nH]2)CC1 [JO-02-49B] | ≤ 5 | ≤ 5 | ≤ 5 | – | –
C=CS(=O)(=O)NC1CCN(c2cc(-c3cc(Cl)c(Cl)cc3I)ccn2)CC1 [Ras-060] | ≤ 5 | ≤ 5 | ≤ 5 | – | –

Now from value to molecule:

percent covalent labeling at 10 µM [1] [%] | percent covalent labeling at 10 µM [2] [%] | percent covalent labeling at 10 µM [3] [%] | Labeling % (10 micM) 24h | Labeling % (10 micM) 24h (Table 5) | Structure (SMILES)
≤ 5 | ≤ 5 | 20 to 40 | – | – | C=CS(=O)(=O)NC1CCN(C(=O)COc2cc(Br)c(Cl)cc2Cl)CC1 [Ras-040]
≤ 5 | ≤ 5 | ≤ 5 | – | – | C=CS(=O)(=O)NC1CCN(C(=O)COc2c(Cl)cc(Cl)cc2Cl)CC1 [Ras-008]
≤ 5 | 5 to 20 | > 60 | +++++ (single) (60% < +++++) | +++++ (single) (60% < +++++) | C=CS(=O)(=O)NC1CCN(C(=O)CNc2cc(Cl)c(Cl)cc2CC)CC1 [Ras-059]
≤ 5 | ≤ 5 | ≤ 5 | – | – | C=CS(=O)(=O)NC1CCN(C(=O)COc2c(Cl)cc(Cl)c3cccnc23)CC1 [UP-I-154A]
≤ 5 | ≤ 5 | ≤ 5 | – | – | C=CS(=O)(=O)NC1CCN(C(=O)COc2cc(-c3cn[nH]c3)c(Cl)cc2Cl)CC1 [Ras-056]
≤ 5 | ≤ 5 | ≤ 5 | – | – | C=CS(=O)(=O)NC1CCN(C(=O)COc2cc(S(N)(=O)=O)c(Cl)cc2Cl)CC1 [Ras-047]
≤ 5 | ≤ 5 | ≤ 5 | – | – | C=CS(=O)(=O)NC1CCN(C(=O)COc2ccc(Cl)cc2C(N)=O)CC1 [Ras-023]
≤ 5 | 5 to 20 | 40 to 60 | – | – | C=CS(=O)(=O)NC1CCN(C(=O)COc2cc(Cl)c(Cl)cc2I)CC1 [Ras-053]
≤ 5 | ≤ 5 | 5 to 20 | – | – | C=CS(=O)(=O)NC1CCN(C(=O)COc2c(N)cc(Cl)cc2Cl)CC1 [UP-I-185b]
≤ 5 | ≤ 5 | ≤ 5 | – | – | C=CS(=O)(=O)NC1CCN(C(=O)COc2cc(C(N)=O)c(Cl)cc2Cl)CC1 [Ras-035]
≤ 5 | ≤ 5 | 40 to 60 | – | – | C#Cc1cc(OCC(=O)N2CCC(NS(=O)(=O)C=C)CC2)c(Cl)cc1Cl [Ras-071]
≤ 5 | ≤ 5 | ≤ 5 | – | – | C=CS(=O)(=O)NC1CCN(C(=O)COc2cc(NC)c(Cl)cc2Cl)CC1 [Ras-024]
≤ 5 | ≤ 5 | ≤ 5 | – | – | C=CS(=O)(=O)NC1CCN(C(=O)C(C)Oc2cc(CN)c(Cl)cc2Cl)CC1 (stereo not shown) [Ras-058]
≤ 5 | ≤ 5 | ≤ 5 | – | – | C=CS(=O)(=O)NC1CCN(C(=O)COc2cc(NS(C)(=O)=O)c(Cl)cc2Cl)CC1 [Ras-061]
≤ 5 | ≤ 5 | 20 to 40 | – | – | C=CS(=O)(=O)NC1CCN(C(=O)COc2cc(CCO)c(Cl)cc2Cl)CC1 [Ras-070]
≤ 5 | ≤ 5 | 5 to 20 | – | – | C=CS(=O)(=O)NC1CCN(C(=O)COc2cc(C(C)O)c(Cl)cc2Cl)CC1 (stereo not shown) [Ras-044]
≤ 5 | ≤ 5 | 20 to 40 | – | – | C=CS(=O)(=O)NC1CCN(C(=O)COc2cc(C(F)(F)F)c(Cl)cc2Cl)CC1 [Ras-011]
